System: Vesicular Stomatitis Virus

Polysorbate 80
virus inactivation by excipient: no appreciable virus inactivation occurred
